From patent US20250361248A1, “PROTAC COMPOUND WITH CYCLOPHILIN A DEGRADATION ACTIVITY, PREPARATION METHOD THEREFOR, AND USE THEREOF” (priority 2022, published 2025)

Experiments:
[1] = test system: IL-1β, IL-6, TNF-α, and IFN-γ; parameters: species or system C57BL/6 mice; conditions: mouse, in vivo, 10 mg/kg/day
[2] = test system: rheumatoid arthritis; assay: Rat rheumatoid arthritis model (Freund complete adjuvant); type: in vivo, Lewise rats; conditions: 10 mg/kg tail vein three times/week
Description: The BCG vaccine was inactivated in a water bath at 80° C. for 1 h, ground thoroughly with incomplete Freund adjuvant, and mixed well to prepare 15 mg/mL Freund complete adjuvant (FCA). Lewise rats were divided into 4 groups: blank group (PBS), untreated group (UT), treatment group 1 (compound), and treatment group 2 (MTX (methotrexate)), with 5 rats in each group and a body weight of […]. Except for the PBS group, rats were intradermally injected with 0.1 mL of FCA in the right hind paw. On day 14 after injection, rats in treatment group 1 (compound) were injected with the compound (10 mg/kg of body weight, dissolved in 100 μL of PBS) through the tail vein three times/week: rats in treatment group 2 (MTX (methotrexate)) were intraperitoneally injected with methotrexate (1.2 mg/kg of body weight) three times/week.
The circumference of the metatarsophalangeal joint was measured. The circumference of the ankle joint of the left hind paw (on the secondary lesion side) of all rats was measured once before modeling, before administration, and 3 weeks after administration, respectively, and the percentage of joint swelling was calculated.
The joint index was determined by joint swelling score before administration (Day 0) and 3 weeks after administration. Scoring was carried out based on the redness and swelling degree of the ankle and toe joints of the front and rear limbs of rats and the affected joint index, as follows: 0 for normal; 1 for the redness and swelling of one joint; 2 for the redness and swelling of two or more joints; 3 for severe redness and swelling of the paw below the ankle joint; 4 for the redness and swelling of the entire paw including the ankle joint and inability to bear weight. The limbs were scored separately; and the cumulative sum of the scores was the joint index.
(1) On the day 21 of administration, rats were euthanized after blood collection. […]
(2) Joint synovial proliferation and the degree of sub-synovial inflammation were observed under a light microscope, and synovial cell proliferation was scored.

[3] = molecular target: CypA (Mus musculus, UniProt P17742); type: in vivo, C57BL/6 mice; conditions: 10 mg/kg of body weight/day from 24 h after IBV infection, 7 days after infection
[4] = test system: A549 cells; assay: Effect on A549 cell activity by CCK-8 method; type: cell-based; conditions: 0 to 10^5 nM, 12 hours
Description: (§1) (1) A549 cells in the logarithmic phase were collected, the concentration of the cell suspension was adjusted, and 100 uL was added per well. The cells to be tested were plated to a density of 10^3-10^4 cells/well and incubated at 37° C. under 5% CO2 until the bottom of the wells was covered by a single layer of cells.
(2) Different concentrations of the compound of Formula (I) were added: 0, 10, 10^2, 10^3, 10^4, and 10^5 nM/well, with 3 replicate wells set, and incubated at 37° C. under 5% CO2 for 12 hours.
• (1) 10 μL CCK8 reagent was added to the above cells in each well and reacted for 2 h. • (2) The incubation was terminated, and the culture medium in the wells was carefully aspirated. • (3) The absorbance of each well was measured using a microplate reader with a wavelength of 450 nm. • (4) The absorbance ratio between the experimental group and the control group was calculated as follows: Cell viability=(Absorbance of the experimental group−Blank control)÷(Absorbance of the control group−Blank control)×100%.

[5] = test system: A549 cells; assay: Migration and infiltration of lung cancer cells, Transwell chambers; type: cell-based
Description: (1) A549 cells in the logarithmic phase were collected, the concentration of the cell suspension was adjusted, and 100 uL was added per well. The cells to be tested were plated to a density of 10^3 to 10^4 cells/well and incubated at 37° C. under 5% CO2 until the bottom of the wells was covered by a single layer of cells.
(2) Different concentrations of the compound represented by Formula I were added: 0, 10, 10^2, 10^3, 10^4, and 10^5 nM/well, with 3 replicate wells set, and incubated at 37° C. under 5% CO2 for 12 hours.
The upper chamber of a 24-well cell culture insert ([…] pore size) was coated (no migration) or (invasive) with a matrix (1 mg/mL) and dried at 37° C. for 30 min.
(3) A549/WT and A549/CypA-cells were trypsinized, washed, and suspended in serum-free DMEM after treatment with 20 ng/ml TGF-β for 48 h.
(1) DMEM containing 10% fetal bovine serum was added to the lower chamber per approximately 5×10^4 cells inserted in the upper chamber.
(2) After incubation for 6 h (migration) or 24 h (invasion), non-migrating or […] cells residing on the upper part of the insert membrane were removed with a cotton swab.
(3) The cells that migrated to the underside of the membrane were fixed and stained with 2% crystal violet in ethanol.
(4) The stained cells were observed and counted under a Japan Olympus CKX41 microscope.

[6] = test system: IBV-/Guangxi-Jiangzhou/1352/2018; assay: IBV-induced pneumonia mouse model: lung index, lung pathology and pathological scores; parameters: species or system C57BL/6 mice; conditions: in vivo
[7] = molecular target: T1, CypA (Homo sapiens, UniProt P62937); assay: CypA degradation in A549 cells by Western Blot; type: cell-based; conditions: A549 cell line, 12 hours
T1 construct: A549 cells in the logarithmic phase were collected; endogenous in cells; host or cells: A549
Description: as §1
(2) Different concentrations of the compound of Formula I were added: 0, 10, 10^2, 10^3, 10^4, and 10^5 nM/well, with 3 replicate wells set, and incubated at 37° C. under 5% CO2 for 12 hours.
(1) The treated cells were scraped off from the culture medium, suspended thoroughly, and then collected by centrifugation at 300 g for 5 minutes. After washing with PBS once, the PBS was discarded. […]
(3) The specific steps for Western Blot (WB) detection were as follows: • 1) An appropriate concentration of SDS-PAGE gel was prepared: the concentration of a separating gel of 10% and the concentration of a stacking gel of 5%. • 2) Sample preparation: protein samples were prepared according to experimental requirements, centrifuged, mixed well, and loaded into the loading wells of SDS-PAGE gel. The loading volume was adjusted appropriately according to the protein quantification results. • 3) Electrophoresis: the power was turned on, and the protein samples were run at 80 volts in the stacking gel. […]

T1 sequence (P62937 whole entry): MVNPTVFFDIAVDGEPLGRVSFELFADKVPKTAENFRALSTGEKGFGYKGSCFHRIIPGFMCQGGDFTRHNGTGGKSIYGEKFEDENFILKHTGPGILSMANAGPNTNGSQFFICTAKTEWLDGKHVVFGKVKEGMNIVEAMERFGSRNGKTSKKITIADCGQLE
Chain of CypA (Mus musculus, UniProt P17742) (P17742 whole entry): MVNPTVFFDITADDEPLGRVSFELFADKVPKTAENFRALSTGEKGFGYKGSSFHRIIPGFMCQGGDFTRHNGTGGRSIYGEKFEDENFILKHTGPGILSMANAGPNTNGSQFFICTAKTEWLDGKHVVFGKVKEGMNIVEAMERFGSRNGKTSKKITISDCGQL

## Cc1ncsc1-c1ccc(CNC(=O)[C@@H]2C[C@@H](O[Si](C)(C)C(C)(C)C)CN2C(=O)[C@@H](NC(=O)COCCCCOCCCCOc2cccc(O)c2C(=O)NC(=O)NC2CCCCC2)C(C)(C)C)cc1 [Formula I]
[1]
  expression of IFN-γ in the lung tissue: significantly reduce
  expression of IL-1β in the lung tissue: significantly reduce
  expression of IL-6 in the lung tissue: significantly reduce
  expression of TNF-α in the lung tissue: significantly reduce
[2]; 3 weeks after administration
  joint index of the ankle joint: reduce the joint index
  joint swelling: significantly relieve joint swelling
[2]; day 21 of administration
  inflammation of the ankle joint (ankle pathological scores, HE): alleviate the inflammation
[3]
  expression of CypA in mouse lung tissue: significantly reduce
[4]
  cell viability: above 80%
[5]; A549, Transwell with matrix, 24 h
  infiltration of lung cancer cells: significantly reduce
[5]; A549, Transwell, 6 h
  migration of lung cancer cells: significantly reduce
[6]
  lung injury (lung index, pathology, pathological scores): significantly alleviate lung injury
[7]; WB grayscale analysis, read-out: half-degradation concentration on CypA
  DC50: < 100 nM
[7]; WB, 0 to 10^5 nM
  degradation effect on CypA protein: could be clearly observed
